Data published in publication PMC9758846, “Dinuclear and mononuclear metal(II) polypyridyl complexes against drug-sensitive and drug-resistant Plasmodium falciparum and their mode of action” (Malaria Journal, 2022).
Values joined by “and” are separate entries in the source; they are usually repeats but may differ in a detail not shown here. Identical values can stand only once. Counter-ions that a name gives are not always drawn. Like-named read-outs stand apart in the source and are kept apart here. Blank lines part the entries; values can stand above or below the compound they belong to.

How the values were obtained:
[1] = target: Pf3D7 20S proteasome chymotrypsin-like (CT-L) site (Plasmodium falciparum, UniProt Q8IJT1); assay: 20S proteasome inhibition assay using parasite lysate; assay type: biochemical; details: Suc-LLVY-AMC, 30 min
Description: (§1) To harvest P. falciparum parasites, intraerythrocytic Pf3D7 and Pf5202 were collected in trophozoite and early schizont stages. Red blood cells were lysed in 0.15% (w/v) saponin lysis buffer for 10 min at 37 °C. After lysis, the parasite pellet was washed once with PBS buffer by centrifuging at 1600 rpm for 5 min. Saponin lysis buffer was added once again to remove all the red blood cells for 10 min at 37 °C, followed by washing with PBS twice and immediately used or kept at − 80 °C. To prepare parasite lysates for proteasome purification, parasite pellet was resuspended with 100 µl of pre-cooled Pierce™ RIPA buffer. A mild protein extraction method was used to prepare parasite extracts. The resuspended parasites were passed 20 times through a needle with a diameter of 0.4 mm in a syringe on ice to lyse the parasite. After 15 min centrifugation at 13,000 xg at 4 °C, the supernatant was removed. Protein concentration was determined by the Bradford assay. The activities of 3 proteolytic sites were determined by fluorescence assay using fluorogenic peptide substrates (Suc-LLVY-AMC for chymotrypsin-like, Boc-LRR-AMC for trypsin-like and Suc-LLE-AMC for caspase-like) Proteasome activities were determined by monitoring the substrate hydrolysis for 30 min at 37 °C with 340 nm excitation and 465 nm emission wavelength. Activity of each proteolytic site were calculated, and the IC50 values were determined from the non-linear regression analysis. VR23 proteasome inhibitor was used as positive control.

[2] = target: Pf5202 20S proteasome caspase-like (C-L) site (Plasmodium falciparum, UniProt Q8I0U7); assay: as above; assay type: biochemical; details: Suc-LLE-AMC, 30 min
Description: as §1

[3] = target: Pf5202 20S proteasome trypsin-like (T-L) site (Plasmodium falciparum, UniProt Q8I6T3); assay: as above; assay type: biochemical; details: parasite lysate; Boc-LRR-AMC; 30 min
Description: as §1

[4] = target: Pf3D7 20S proteasome caspase-like (C-L) site (Plasmodium falciparum, UniProt Q8I0U7); assay: as above; assay type: biochemical; details: Suc-LLE-AMC, 30 min
Description: as §1

[5] = target: Pf3D7 20S proteasome trypsin-like (T-L) site (Plasmodium falciparum, UniProt Q8I6T3); assay: as above; assay type: biochemical; details: Boc-LRR-AMC, 30 min
Description: as §1

[6] = target: Pf5202 20S proteasome chymotrypsin-like (CT-L) site (Plasmodium falciparum, UniProt Q8IJT1); assay: as above; assay type: biochemical; details: Suc-LLVY-AMC, 30 min
Description: as §1

[7] = PNDA assay of •OH radicals from reaction with H2O2; details: for Concentration of •OH radical: 30 µM compound with excess H2O2
Description: A previously reported spectrometric assay using PNDA was used to quantify the amount of reactive oxygen species (ROS), viz. •OH radicals, produced by the reaction of metal(II) complexes with hydrogen peroxide in borate buffer at pH 7.5 [24–26]. The percentage of PNDA bleaching and the concentration of •OH produced were determined.

[8] = tested on: B+ blood red blood cells (RBC); assay: In vitro haemolytic assay; assay type: cell-based, human; details: 72 h
Description: Fresh B+ blood was washed with RPMI1640 medium containing of 30 µg/mL gentamicin (Gibco) and centrifuged at 1000 xg for 10 min three times. The percentage of haemolysis was determined spectroscopically using 5% haematocrit containing test compound at increasing concentration and incubated for 72 h at 37 °C [19, 20]. Untreated blood acted as negative control while blood treated with sterile distilled water acted as positive control (for 100% haemolysis).

Pf3D7 = assay: Intracellular ROS level using DCFH-DA; assay type: cell-based, Plasmodium falciparum
Description: (§2) After incubation, packed cells were washed with phosphate buffer saline (PBS) solution. […] The data was expressed as fold change between amount of ROS produced by treated P. falciparum against untreated P. falciparum. Normalization was done with the percentage of parasite viability obtained at each condition. Hydrogen peroxide was used as positive control.

Pf5202 = assay: Intracellular ROS level using DCFH-DA; assay type: cell-based, Plasmodium falciparum
Description: as §2

[9] = tested on: Plasmodium falciparum 3D7 (Pf3D7); assay: In vitro anti-malarial activity using SYBR Green I nucleic acid dye; assay type: cell-based; details: read-out: IC50 of Pf3D7
Description: (§3) The drug-sensitive strain of P. falciparum 3D7 (Pf3D7) was obtained from the Department of Science, Monash University, Malaysia and cultured as previously described. The artemisinin-resistant strain of P. falciparum IPC5202 (Pf5202) was obtained from BEI Resources and cultured as mentioned in the product sheet. Both strains were maintained in sealed flask at 37 °C in a humidified atmosphere of 5% O2, 5% CO2 and 90% N2. All buffer stock solutions for biological assays were autoclaved at 121 °C for 15 min.
(§4) Previously reported anti-malarial assay was used with slight modification using 1% parasitaemia (ring-stage) and 5% haematocrit treated with test compounds at increasing concentration and incubated for 72 h at 37 °C [21–23]. After the incubation, the assay was terminated by freeze/thaw cycle (− 80 °C overnight before thawing for 2 h) before the addition of lysis buffer containing SYBR Green I dye into each well and mixed thoroughly using the belly dancer for 30 min in the dark. Chloroquine diphosphate salt and artemisinin were used as standard drugs. The fluorescence signal was quantified at 485 nm excitation wavelength and 528 nm emission wavelength. IC50 values of each test compound was determined from a dose response curve by non-linear regression analysis.

[10] = tested on: Plasmodium falciparum IPC5202 (Pf5202); assay: as above; assay type: cell-based; details: for IC50: read-out: IC50 of Pf5202
Description: as §3, §4

[11] = 72 h incubation, listed as copper(II) nitrate

Chain of Pf3D7 20S proteasome chymotrypsin-like (CT-L) site (Q8IJT1 entry or part of it): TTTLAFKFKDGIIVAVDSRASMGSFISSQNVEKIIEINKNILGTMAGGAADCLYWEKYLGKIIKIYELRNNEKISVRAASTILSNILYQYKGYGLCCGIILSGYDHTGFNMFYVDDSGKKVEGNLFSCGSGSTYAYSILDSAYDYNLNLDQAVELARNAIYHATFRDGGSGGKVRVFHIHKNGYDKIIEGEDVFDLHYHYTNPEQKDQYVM
Chain of Pf5202 20S proteasome chymotrypsin-like (CT-L) site (Q8IJT1 entry or part of it): as above
Chain of Pf5202 20S proteasome caspase-like (C-L) site (Q8I0U7 entry or part of it): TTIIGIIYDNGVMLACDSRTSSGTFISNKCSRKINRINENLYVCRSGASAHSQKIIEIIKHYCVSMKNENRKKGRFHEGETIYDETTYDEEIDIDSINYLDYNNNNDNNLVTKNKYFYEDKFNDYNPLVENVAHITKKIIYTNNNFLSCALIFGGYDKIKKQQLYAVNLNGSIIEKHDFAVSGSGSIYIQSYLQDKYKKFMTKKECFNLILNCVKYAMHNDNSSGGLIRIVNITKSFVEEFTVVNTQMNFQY
Chain of Pf5202 20S proteasome caspase-like (C-L) site (Q8I6T3 entry or part of it, further chain): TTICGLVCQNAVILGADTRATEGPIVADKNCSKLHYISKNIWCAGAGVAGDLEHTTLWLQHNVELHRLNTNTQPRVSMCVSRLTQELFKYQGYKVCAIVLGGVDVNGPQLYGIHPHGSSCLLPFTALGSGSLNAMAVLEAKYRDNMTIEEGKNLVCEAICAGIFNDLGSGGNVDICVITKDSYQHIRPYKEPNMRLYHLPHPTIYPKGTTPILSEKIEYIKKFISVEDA
Chain of Pf3D7 20S proteasome caspase-like (C-L) site (Q8I6T3 entry or part of it): as the sequence (Q8I6T3 entry or part of it, further chain) above
Chain of Pf3D7 20S proteasome caspase-like (C-L) site (Q8I0U7 entry or part of it): as the sequence (Q8I0U7 entry or part of it) above
Chain of Pf3D7 20S proteasome trypsin-like (T-L) site (Q8I6T3 entry or part of it): as the sequence (Q8I6T3 entry or part of it, further chain) above
Chain of Pf5202 20S proteasome trypsin-like (T-L) site (Q8I6T3 entry or part of it): as the sequence (Q8I6T3 entry or part of it, further chain) above

Compound: O=[N+]([O-])c1ccc(S(=O)(=O)N2CCN(c3ccnc4cc(Cl)ccc34)CC2)c([N+](=O)[O-])c1 [VR23, reference compound]
IC50 [1]: > 5 µM | IC50 [2]: > 5 µM | IC50 [3]: 0.86 ± 0.09 µM | IC50 [4]: > 5 µM | IC50 [5]: 0.78 ± 0.11 µM | IC50 [6]: > 5 µM

Compound: [Zn(phen)(NO3)-4,4′-bipy-Zn(phen)(NO3)](NO3)2·2H2O [Complex 4]
IC50 [1]: > 25 µM | IC50 [2]: > 25 µM | IC50 [3]: > 25 µM | IC50 [4]: > 25 µM | IC50 [5]: > 25 µM | IC50 [6]: > 25 µM | Generation of ·OH radicals (in words) ([7]; equimolar test compound with excess H2O2): did not generate any ·OH radicals | Haemolysis on B+ blood (in words) ([8]; up to 25 µM): no haemolysis | fold change in ROS (Pf3D7; 24 h, 25.0 µM): 0.31 ± 0.31 fold | fold change in ROS (Pf3D7; 48 h, 0.2 µM): 0.52 ± 0.26 fold | fold change in ROS (Pf3D7; 48 h, 1.0 µM): 0.77 ± 0.58 fold | fold change in ROS (Pf3D7; 48 h, 5.0 µM): 0.85 ± 0.40 fold | fold change in ROS (Pf3D7; 48 h, 25.0 µM): 0.42 ± 0.19 fold | fold change in ROS (Pf3D7; 72 h, 0.2 µM): 1.52 ± 0.07 fold | fold change in ROS (Pf3D7; 72 h, 1.0 µM): 1.52 ± 0.14 fold | fold change in ROS (Pf3D7; 72 h, 5.0 µM): 1.85 ± 0.27 fold | fold change in ROS (Pf3D7; 72 h, 25.0 µM): 1.19 ± 0.57 fold | fold change in ROS (Pf5202; 24 h, 1.0 µM): 0.44 ± 0.25 fold | fold change in ROS (Pf5202; 48 h, 5.0 µM): 0.43 ± 0.09 fold | fold change in ROS (Pf5202; 48 h, 25.0 µM): 0.39 ± 0.36 fold | fold change in ROS (Pf5202; 72 h, 1.0 µM): 0.45 ± 0.32 fold | fold change in ROS (Pf5202; 72 h, 5.0 µM): 0.33 ± 0.01 fold | fold change in ROS (Pf5202; 72 h, 25.0 µM): 0.13 ± 0.05 fold | IC50 ([9]; 72 h incubation): 3.9 µM and 3.93 µM | IC50 ([10]; 72 h incubation): > 100 µM

IC50 ([9]; Plasmodium falciparum, 3D7, 72 h): 0.03 ± 0.01 µM | IC50 ([10]; Plasmodium falciparum, 72 h): > 100 µM
Compound: CCN(CC)CCCC(C)Nc1ccnc2cc(Cl)ccc12 (centres unmarked) [CQ, Chloroquine diphosphate salt]
Drop in efficacy/potency towards Pf5202 relative to Pf3D7 ([10]; ratio of IC50 values): more than 3000 ×

Compound: O.O.O.O=[N+]([O-])[O-].O=[N+]([O-])[O-].[Cu+2] [Cu(NO3)2·3H2O, Copper(II) nitrate trihydrate, reference compound]
Concentration of •OH radical ([7]; 2 h): 14.59 ± 2.39 µM | Concentration of •OH radical ([7]; 4 h): 19.27 ± 2.36 µM | Concentration of •OH radical ([7]; 24 h): 36.29 ± 1.80 µM | Concentration of •OH radical ([7]; 48 h): 33.20 ± 1.62 µM | Concentration of •OH radical ([7]; 72 h): 29.82 ± 1.60 µM | Percentage of haemolysis (haemolytic index, HI) ([8]; 1 µM, B+ blood): 3% | IC50 [9, 11]: ~46 µM | IC50 ([9]; 72 h incubation): 46.1 ± 4.29 µM | IC50 [10, 11]: ~49 µM | IC50 ([10]; 72 h incubation): 49.4 ± 2.3 µM
